Experiments:
CB1 receptor = CB1 receptor (Homo sapiens, UniProt P21554); assay: Cannabinoid receptor assay, CB1 (CP-55940 as control); assay type: binding
Experimental: (§1) The affinities of the total extracts and the isolated compounds towards cannabinoid and opioid receptors were assessed according to the published method.
(§2) The affinities of the total extracts and the isolated compounds towards cannabinoid and opioid receptors were assessed using CP-55940 and Naloxone as controls for cannabinoid and opioid receptors assays, respectively.

[1] = target: T1, recombinant human monoamine oxidase-A (Homo sapiens, UniProt P21397); assay: MAO-A inhibition, kynuramine deamination assay; assay type: biochemical; conditions: kynuramine 80 μM, pH 7.4, 37°C; mean ±SD of triplicate
T1 construct: purchased BD Biosciences (Bedford, MA, USA)
T1 sequence (P21397 1-527): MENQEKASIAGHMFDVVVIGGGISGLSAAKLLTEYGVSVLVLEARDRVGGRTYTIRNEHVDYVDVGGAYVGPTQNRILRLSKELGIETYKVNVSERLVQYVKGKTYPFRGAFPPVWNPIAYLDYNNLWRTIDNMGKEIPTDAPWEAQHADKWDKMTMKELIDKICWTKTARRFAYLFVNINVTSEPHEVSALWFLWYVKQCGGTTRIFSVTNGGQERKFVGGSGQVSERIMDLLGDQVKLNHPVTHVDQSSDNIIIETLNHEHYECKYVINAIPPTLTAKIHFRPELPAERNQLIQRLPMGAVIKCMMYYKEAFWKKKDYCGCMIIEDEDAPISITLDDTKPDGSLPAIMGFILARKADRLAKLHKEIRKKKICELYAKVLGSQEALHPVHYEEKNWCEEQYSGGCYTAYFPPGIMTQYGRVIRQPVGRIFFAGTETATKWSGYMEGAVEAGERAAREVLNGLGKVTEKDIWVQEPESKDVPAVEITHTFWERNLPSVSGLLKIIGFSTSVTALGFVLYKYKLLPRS
Experimental: (§3) The inhibitory effects of the chemical components of M. pomifera (L.) on MAO-A and MAO-B were determined via the kynuramine deamination assay, where it was adapted for 96-well plates as described earlier. A fixed concentration of the substrate and varying concentrations of the inhibitor were used to determine the IC50 value at the point where 50% inhibition of the catalytic activity of the enzyme occurred. For MAO-A, the substrate (kynuramine) concentration of 80 μM was chosen, since the KM value of substrate binding reported previously was approximately 40 μM [23]. […] Similarly, for MAO-B, a substrate (kynuramine) concentration of 50 μM was chosen. The assay was performed with the addition of the inhibitor. Inhibition was calculated as percent of the product formation compared to the corresponding control (enzyme-substrate reaction) without the inhibitors. The enzyme reactions were carried out in 0.1 M potassium phosphate buffer at pH 7.4. Reaction mixtures contained 5 μg/mL of MAO-A (18.75 μL in buffer) and 10 μg/mL of MAO-B (18.75 μL in buffer). The compounds were dissolved in DMSO and diluted in buffer. The total reaction mixture volume was 75 μL, yielding a final DMSO concentration of 1.0% in the reaction mixture. The reaction mixtures were preincubated for 10 min at 37°C followed by the addition of MAO-A/MAO-B to initiate the reactions. The reaction mixtures were incubated for 20 min at 37°C and stopped by the addition of 28 μL of 2 N NaOH. The formation of 4-hydroxyquinoline was determined fluorometrically by Spectra Max M5 fluorescence plate reader (Molecular Devices, Sunnyvale, CA, USA) with an excitation and emission wavelength of 320 nm and 380 nm, respectively, using the Soft Max Pro program. Appropriate controls were set up to check the interference with the fluorescence measurements. […] The determination of IC50 values for inhibition of MAO-A and MAO-B by the M. pomifera (L.) compounds was performed using a fixed concentration of the substrate and varying the concentration of the inhibitor.
(§4) The compounds isolated from M. pomifera (L.) fruits were tested for their inhibitory effect against recombinant human MAO isoforms (MAO-A and MAO-B) in vitro. The enzymatic activity of MAO-A and MAO -B was determined via a fluorescence based method.

[2] = target: T2, recombinant human monoamine oxidase-B (Homo sapiens, UniProt P27338); assay: MAO-B inhibition, kynuramine deamination assay; assay type: biochemical; conditions: for Selectivity of MAO inhibition: MAO-B versus MAO-A; for IC50: kynuramine 50 μM, pH 7.4, 37°C, mean ±SD of triplicate; for SI index MAO-A/B: ratio of MAO-A IC50 to MAO-B IC50
T2 construct: purchased BD Biosciences (Bedford, MA, USA)
T2 sequence (P27338 1-520): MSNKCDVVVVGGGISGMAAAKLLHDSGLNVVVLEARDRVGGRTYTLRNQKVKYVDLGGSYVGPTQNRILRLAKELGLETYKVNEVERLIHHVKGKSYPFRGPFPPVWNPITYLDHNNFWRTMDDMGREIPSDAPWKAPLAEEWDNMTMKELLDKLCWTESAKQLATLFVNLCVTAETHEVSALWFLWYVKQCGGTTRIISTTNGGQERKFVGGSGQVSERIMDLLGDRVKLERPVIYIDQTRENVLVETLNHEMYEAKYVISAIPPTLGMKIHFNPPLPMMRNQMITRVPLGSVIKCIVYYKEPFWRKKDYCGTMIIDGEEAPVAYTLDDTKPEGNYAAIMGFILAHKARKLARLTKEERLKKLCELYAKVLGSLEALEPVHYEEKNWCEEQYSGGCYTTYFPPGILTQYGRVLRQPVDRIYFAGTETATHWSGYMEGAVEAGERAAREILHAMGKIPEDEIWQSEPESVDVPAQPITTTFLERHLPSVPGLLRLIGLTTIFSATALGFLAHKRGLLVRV
Experimental: as §3, §4

μ opioid receptor = μ opioid receptor (Homo sapiens, UniProt P35372); assay: Opioid receptor assay, μ (Naloxone as control); assay type: binding; conditions: negative value read as possibly allosteric
Experimental: as §1, §2

κ opioid receptor = κ opioid receptor (Homo sapiens, UniProt P41145); assay: Opioid receptor assay, κ (Naloxone as control); assay type: binding; conditions: negative value read as possibly allosteric
Experimental: as §1, §2

CB2 receptor = CB2 receptor (Homo sapiens, UniProt P34972); assay: Cannabinoid receptor assay, CB2 (CP-55940 as control); assay type: binding
Experimental: as §1, §2

Chain of CB1 receptor (P21554 whole entry): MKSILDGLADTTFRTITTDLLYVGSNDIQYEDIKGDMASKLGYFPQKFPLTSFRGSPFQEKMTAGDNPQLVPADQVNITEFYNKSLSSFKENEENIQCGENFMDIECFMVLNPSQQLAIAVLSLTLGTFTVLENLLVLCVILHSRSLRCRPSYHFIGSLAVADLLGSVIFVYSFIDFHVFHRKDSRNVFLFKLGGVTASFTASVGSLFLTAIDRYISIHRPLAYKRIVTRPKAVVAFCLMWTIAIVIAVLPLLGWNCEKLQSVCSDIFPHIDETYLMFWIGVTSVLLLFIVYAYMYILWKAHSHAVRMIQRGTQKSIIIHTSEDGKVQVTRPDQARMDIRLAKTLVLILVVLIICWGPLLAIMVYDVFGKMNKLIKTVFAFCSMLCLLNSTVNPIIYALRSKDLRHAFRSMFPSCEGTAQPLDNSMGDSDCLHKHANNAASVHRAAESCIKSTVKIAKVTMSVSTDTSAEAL
Chain of CB2 receptor (P34972 whole entry): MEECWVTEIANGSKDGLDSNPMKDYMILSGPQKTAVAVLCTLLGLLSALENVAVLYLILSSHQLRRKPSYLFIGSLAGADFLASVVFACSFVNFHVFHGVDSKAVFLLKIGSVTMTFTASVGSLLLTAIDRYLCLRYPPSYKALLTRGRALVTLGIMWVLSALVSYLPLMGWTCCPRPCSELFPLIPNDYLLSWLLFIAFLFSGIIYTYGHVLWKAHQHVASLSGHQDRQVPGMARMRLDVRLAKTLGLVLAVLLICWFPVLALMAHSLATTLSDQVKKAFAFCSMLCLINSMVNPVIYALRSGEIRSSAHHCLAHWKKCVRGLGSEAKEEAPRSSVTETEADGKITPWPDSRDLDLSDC
Chain of κ opioid receptor (P41145 whole entry): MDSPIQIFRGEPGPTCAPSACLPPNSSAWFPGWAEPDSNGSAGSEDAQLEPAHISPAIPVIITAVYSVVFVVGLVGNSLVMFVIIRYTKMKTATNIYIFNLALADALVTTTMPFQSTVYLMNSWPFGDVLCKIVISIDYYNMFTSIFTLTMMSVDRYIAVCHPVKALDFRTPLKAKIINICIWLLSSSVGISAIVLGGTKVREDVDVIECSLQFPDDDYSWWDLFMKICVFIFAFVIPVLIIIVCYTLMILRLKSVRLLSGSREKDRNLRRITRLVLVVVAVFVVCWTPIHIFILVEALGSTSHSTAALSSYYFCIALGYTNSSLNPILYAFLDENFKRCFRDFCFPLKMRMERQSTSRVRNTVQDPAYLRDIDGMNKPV
Chain of μ opioid receptor (P35372 whole entry): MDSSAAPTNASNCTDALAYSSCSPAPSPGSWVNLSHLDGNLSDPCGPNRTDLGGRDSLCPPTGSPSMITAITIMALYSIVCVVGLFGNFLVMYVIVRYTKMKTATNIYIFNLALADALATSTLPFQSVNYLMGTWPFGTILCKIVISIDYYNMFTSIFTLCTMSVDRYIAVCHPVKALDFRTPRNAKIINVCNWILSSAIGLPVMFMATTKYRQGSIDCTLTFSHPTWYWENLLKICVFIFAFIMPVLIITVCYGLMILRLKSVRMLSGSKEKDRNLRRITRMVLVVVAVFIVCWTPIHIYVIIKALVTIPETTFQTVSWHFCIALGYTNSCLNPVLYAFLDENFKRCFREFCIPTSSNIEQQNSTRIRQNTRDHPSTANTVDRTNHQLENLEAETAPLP

IC50 (CB1 receptor) [µM]	Ki (CB1 receptor) [µM]	CB1 % displacement (CB1 receptor; 10 μM) [%]	IC50 [1] [µM]	Selectivity of MAO inhibition [2]	IC50 [2] [µM]	SI index MAO-A/B [2]	CB1 % displacement (CB1 receptor; concentration not given) [%]	μ opioid receptor % displacement (μ opioid receptor) [%]	κ opioid receptor % displacement (κ opioid receptor) [%]	CB2 % displacement (CB2 receptor; concentration not given) [%]	IC50 (CB2 receptor) [µM]	Ki (CB2 receptor) [µM]	CB2 % displacement (CB2 receptor; 10 μM) [%]	Compound
8.92	4.46	86.7	46 ± 4.48	selective inhibition of MAO-B	1.91 ± 0.32	24.073								CC(C)=CCc1c2c(c(O)c3c(=O)c(-c4ccc(O)c(O)c4)coc13)C=CC(C)(C)O2 [Auriculasin (VI), auriculasin]
			74.3 ± 3.44		11.6 ± 1.39	6.413	60.5	−27.2	−88.4					COC(Cc1c2c(c(O)c3c(=O)c(-c4ccc(O)c(O)c4)coc13)C=CC(C)(C)O2)C(C)(C)O (stereo not drawn) [Kazosajin I, 3-(3,4-Dihydroxyphenyl)-5-hydroxy-10-(3-hydroxy-2-methoxy-3-methylbutyl)-8,8-dimethylpyrano[3,2-g]chromen-4(8H)-one]
			72 ± 3.72	selective inhibition of MAO-B	4.28 ± 0.67	16.829	47.9			42.3				C=C(C)C(O)C(=O)c1c2c(c3occ(-c4ccc(O)c(O)c4)c(=O)c3c1O)C=CC(C)(C)O2 (stereo not drawn) [Kazosajin II, 3-(3,4-Dihydroxyphenyl)-5-hydroxy-6-(2-hydroxy-3-methylbut-3-enoyl)-8,8-dimethylpyrano[2,3-f]chromen-4(8H)-one]
			> 100	selective inhibition of MAO-B	7.16 ± 1.15									CC1(C)C=Cc2c(c3c(c4c(=O)c(-c5ccc(O)cc5)coc24)OC(C)(C)C(O)C3)O1 (stereo not drawn) [Kazosajin III, 11-Hydroxy-7-(4-hydroxyphenyl)-2,2,10,10-tetramethyl-11,12-dihydro-2H-dipyrano[2,3-f: 2′,3′-h]chromen-8(10H)-one]
			71.2 ± 2.61		17.7 ± 1.06	4.032								COC(c1c2c(c(O)c3c(=O)c(-c4ccc(O)c(O)c4)coc13)C=CC(C)(C)O2)C1OC1(C)C (stereo not drawn) [Kazosajin IV, 3-(3,4-Dihydroxyphenyl)-10-((3,3-dimethyloxiran-2-yl)(methoxy)methyl)-5-hydroxy-8,8-dimethylpyrano[3,2-g]chromen-4(8H)-one]
3.86	1.93	93.9	> 100		> 100		93.9			52.7	7.65	3.82	52.7	CC(C)=CCc1c2c(c3occ(-c4ccc(O)cc4)c(=O)c3c1O)C=CC(C)(C)O2 [Osajin (VIII), osajin]
1.67		111.3	> 100	selective inhibition of MAO-B	5.69 ± 0.38		111.3			77.57	4.44	2.22	77.6	CC(C)=CCc1c2c(c(O)c3c(=O)c(-c4ccc(O)cc4)coc13)C=CC(C)(C)O2 [Warangalone (VII), warangalone]

Compound	IC50 (CB1 receptor) [µM]	Ki (CB1 receptor) [µM]	CB1 % displacement (CB1 receptor; 10 μM) [%]	IC50 [1] [µM]	Selectivity of MAO inhibition [2]	IC50 [2] [µM]	SI index MAO-A/B [2]	CB1 % displacement (CB1 receptor; concentration not given) [%]	μ opioid receptor % displacement (μ opioid receptor) [%]	κ opioid receptor % displacement (κ opioid receptor) [%]	CB2 % displacement (CB2 receptor; concentration not given) [%]	IC50 (CB2 receptor) [µM]	Ki (CB2 receptor) [µM]	CB2 % displacement (CB2 receptor; 10 μM) [%]
CC(C)=CCc1c2c(c3occ(-c4ccc(O)c(O)c4)c(=O)c3c1O)C=CC(C)(C)O2 [Pomiferin (V), pomiferin]	2.11	1.05	107.2	> 100		> 100		107.2			66.0	1.32		66.0
